These results are taken from patent US6365584B1, “Arylysulphonamide-substituted benzimidazoles having tryptase-inhibiting activity” (Boehringer Ingelheim Pharma KG, priority 1999, dated 2002).

Counter-ions that a name gives are not always drawn.

T1 sequence (Q15661 31-275): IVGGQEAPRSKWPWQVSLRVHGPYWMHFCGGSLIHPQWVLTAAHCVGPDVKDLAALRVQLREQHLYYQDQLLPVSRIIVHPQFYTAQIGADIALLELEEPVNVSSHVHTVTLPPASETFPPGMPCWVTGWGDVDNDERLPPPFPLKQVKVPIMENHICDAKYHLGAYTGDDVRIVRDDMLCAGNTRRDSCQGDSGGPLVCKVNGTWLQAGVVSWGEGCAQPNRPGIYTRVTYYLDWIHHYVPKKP

This assay concerns the target T1, rh beta tryptase (Homo sapiens, UniProt Q15661).
T1 construct: purchased Promega
Description: tryptase inhibition test (cleavage of N-p-tosyl-Gly-Pro-Lys-para-nitroaniline, p-nitroaniline measured at 405 nm). The format is biochemical. The note with it: Tris HCl buffer pH 7.4 with calcium and heparin; substrate 0.6 mM; 5 min pre-incubation, 5 min incubation at 37° C.; enzyme activity 0.91 U/ml. On the procedure: The compounds according to the invention are characterised by their tryptase-inhibiting activity. This ability to inhibit tryptase was investigated using the test described below. The measurement is carried out in Tris HCl buffer (100 mM), which additionally contains calcium (5 mM) and heparin (100 mg/ml), at pH 7.4. The standard used is rh beta tryptase which may be obtained commercially from Promega, for example. The substrate used is N-p-tosyl-Gly-Pro-Lys-para-nitroaniline in a concentration of 0.6 mM. The substrate is digested with tryptase to form p-nitroaniline which can be measured at 405 nm. Usually, an incubation period of 5 minutes and an incubation temperature of 37° C. are chosen. The enzyme activity used is 0.91 U/ml. The measurements are carried out in an Autoanalyser (CobasBio) made by Hofmann LaRoche. The potential inhibitory substances are used in concentrations of 10 μM in the screening, the inhibition of the tryptase being given in percent. The IC50 is determined at over 70% inhibition (concentration at which 50% of the enzyme activity is inhibited). After 5 minutes' pre-incubation of the potential inhibitory substances, the substrate is added to start the reaction, the formation of p-nitroaniline being taken as a measurement of the enzyme activity after 5 minutes, after testing the linearity.
The data obtained after the above test has been carried out (IC50 values) can be found in Table 3.
What is called IC50 is the midpoint of a concentration-inhibition curve. Take `CCN(CC)CCN(c1ccc2c(c1)nc(CCc1ccc(C(=N)N)cc1)n2CCO)S(=O)(=O)c1ccccc1` [Example 16, 1-(2-hydroxyethyl)-2-[2-(4-amidinophenyl)-ethyl]-5-[N-(2-diethylaminoethyl)-benzene-sulphonylamino]-benzimidazole]: the half-inhibitory concentration (IC50) is 121 nM.

As to “1-Methyl-2-[2-(4-amidino- phenyl)-ethyl]-5-[N-(4′-(3″- hydroxypropyl)-piperazin-1-yl- carbonylmethyl)-naphth-2-yl- sulphonylamino]-benzimidazole [Example 51]”, the half-inhibitory concentration (IC50) came out at 35 nM. As for `CCCn1c(CCc2ccc(C(=N)N)cc2)nc2cc(N(CCN(CC)CC)S(=O)(=O)c3ccccc3)ccc21` [Example 18, 1-n-propyl-2-[2-(4-amidino-phenyl)-ethyl]-5-[N-(2-diethyl-aminoethyl)-benzenesulphonyl-amino]-benzimidazole], the 50% inhibitory concentration (IC50) was 292 nM. Take `CCN(CC)CCN(c1ccc2c(c1)nc(CCc1ccc(CN)cc1)n2C)S(=O)(=O)c1ccccc1` [Example 5, N-{2-[2-(4-aminomethyl-phenyl)-ethyl]-1-methyl-benzimidazol-5-yl}-N-diethylaminoethyl-(benzenesulphonamide)-dihydrochloride]: the half-maximal inhibitory concentration (IC50) was 100 nM. For the compound `CCN(CC)CCN(c1ccc2c(c1)nc(CCc1ccc(C(=N)N)cc1)n2C)S(=O)(=O)c1cccc2ccccc12` [Example 28, 1-methyl-2-[2-(4-amidino-phenyl)-ethyl]-5-[N-(2-diethyl-aminoethyl)-naphth-1-yl-sulphonylamino]-benzimidazole], the IC50 stood at 27 nM. The value for `CCN(CC)CCN(c1ccc2c(c1)nc(CCc1ccc(C(=N)N)cc1)n2CCCc1ccccc1)S(=O)(=O)c1ccccc1` [Example 25, 1-(3-phenylpropyl)-2-[2-(4-amidinophenyl)-ethyl]-5-[N-(2-diethylaminoethyl)-benzene-sulphonylamino]-benzimidazole] was 412 nM; that for `CCN(CC)CCN(c1ccc2c(c1)nc(CCc1ccc(C(=N)N)cc1)n2C)S(=O)(=O)c1ccc2ccccc2c1` [Example 35, 1-methyl-2-[2-(4-amidino-phenyl)-ethyl]-5-[N-(2-diethylaminoethyl)-naphth-2-yl-sulphonylamino]-benzimidazole] was 6.6 nM.

In the case of `Cn1c(CCc2ccc(C(=N)N)cc2)nc2cc(N(CC(=O)N3CCC(Cc4ccccc4)CC3)S(=O)(=O)c3ccc4ccccc4c3)ccc21` [Example 46, 1-Methyl-2-[2-(4-amidino-phenyl)-ethyl]-5-[N-(4′-benzyl-piperid-1-yl-carbonylmethyl)-naphth-2-ylsulphonylamino]-benzimidazole], the half-inhibitory concentration (IC50) came to 30 nM. Take `Cn1c(CCc2ccc(C(=N)N)cc2)nc2cc(N(C3CCN(Cc4ccccc4)CC3)S(=O)(=O)c3ccccc3)ccc21` [Example 13, 1-methyl-2-[2-(4-amidino-phenyl)-ethyl]-5-[N-(1-benzyl-piperidin-4-yl)-benzene-sulphonylamino]-benzimidazole]: the concentration for half-maximal inhibition (IC50) is 76 nM. `CCN(CC)CCN(c1ccc2c(c1)nc(CCc1ccc(C(=N)N)cc1)n2C)S(=O)(=O)c1csc2ccccc12` [Example 43, 1-Methyl-2-[2-(4-amidino-phenyl)-ethyl]-5-[N-(2-diethyl-aminoethyl)-benzo[b]thien-3-yl-sulphonylamino]-benzimidazole]: the concentration for half-maximal inhibition (IC50) was 25 nM. As for `CCN(CC)CCN(c1ccc2c(c1)nc(CCc1ccc(C(=N)N)cc1)n2CCOC)S(=O)(=O)c1ccccc1` [Example 17, 1-(2-methoxyethyl)-2-[2-(4-amidinophenyl)-ethyl]-5-[N-(2-diethylaminoethyl)-benezene-sulphonylamino]-benzimidazole], the IC50 came to 62 nM. Consider `CCN(CC)CCN(c1ccc2c(c1)nc(CCc1ccc(C(=N)N)cc1)n2CCOc1ccccc1OC)S(=O)(=O)c1ccccc1` [Example 26, 1-[2-(2-methoxyphenoxy)ethyl]-2-[2-(4-amidinophenyl)-ethyl]-5-[N-(2-diethylaminoethyl)-benzenesulphonylamino]-benzimidazole], for which the 50% inhibitory concentration (IC50) was 74 nM.
